Laboratory results reported in US8003649B2 (AstraZeneca AB, priority 2007, dated 2011).

How the values were obtained:
rat GST-tagged AR-LBD = target: T1, rat GST-tagged AR-LBD (Rattus norvegicus, UniProt P15207); assay: LanthaScreen TR-FRET AR Binding Assay; details: n = 2; 12-point concentration response up to 100 μM
T1 construct: purchased Invitrogen
T1 sequence (P15207 651-882 limits assumed): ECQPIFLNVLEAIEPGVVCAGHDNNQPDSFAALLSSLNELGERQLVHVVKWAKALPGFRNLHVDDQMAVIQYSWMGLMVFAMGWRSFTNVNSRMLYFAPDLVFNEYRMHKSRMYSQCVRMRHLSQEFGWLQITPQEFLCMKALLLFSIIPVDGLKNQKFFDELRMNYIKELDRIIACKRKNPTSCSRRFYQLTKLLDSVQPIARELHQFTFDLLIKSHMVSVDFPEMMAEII
Experimental: The ability of compounds to bind to isolated Androgen Receptor Ligand binding domain (AR-LBD) was assessed in competition assays using either a Fluorescence Polarisation (FP) or a LanthaScreen™ Time-Resolved Fluorescence Resonance Energy Transfer (TR-FRET) detection end-point.
For LanthaScreen™ TR-FRET, a suitable fluorophore (Product code PV4294) and rat GST-tagged AR-LBD were purchased from Invitrogen and used to measure compound binding. The assay principle is that AR-LBD is added to a fluorescent ligand to form a receptor/fluorophore complex. A terbium-labelled anti-GST antibody is used to indirectly label the receptor by binding to a GST tag, and competitive binding is detected by a test compounds' ability to displace the fluorescent ligand resulting in a loss of TR-FRET signal between the Tb-anti-GST antibody and the tracer. The assay was performed as follows with all reagent additions carried out using the Thermo Scientific Matrix PlateMate:— • 1. […]
Compounds were dosed directly from a compound source microplate containing serially diluted compound (4 wells containing 10 mM, 0.1 mM, 1 μM and 10 nM final compound respectively) to an assay microplate using the Labcyte Echo 550. […] Competitive AR binding was expressed as an IC50 value. This was determined by calculation of the concentration of compound that was required to give a 50% reduction in tracer compound binding to AR-LBD.

Androgen Receptor (AR) = target: T2, Androgen Receptor (AR) (Homo sapiens, UniProt P10275, T878A); assay: LNCaP Androgen Receptor Down-regulation Cell Assay (immunofluorescence end point); format: cell-based; details: LNCaP prostate carcinoma cells, compound incubation 20-22 hours, 50% reduction of the AR signal; read-out: Androgen Receptor Down-regulation Assay (a) IC50/μM
T2 construct: cell based immuno-fluorescence assay using the LNCaP prostate epithelial cell line; endogenous in cells; host or cells: LNCaP clone FGC (ATCC CRL-1740)
T2 sequence (P10275 1-920 T878A): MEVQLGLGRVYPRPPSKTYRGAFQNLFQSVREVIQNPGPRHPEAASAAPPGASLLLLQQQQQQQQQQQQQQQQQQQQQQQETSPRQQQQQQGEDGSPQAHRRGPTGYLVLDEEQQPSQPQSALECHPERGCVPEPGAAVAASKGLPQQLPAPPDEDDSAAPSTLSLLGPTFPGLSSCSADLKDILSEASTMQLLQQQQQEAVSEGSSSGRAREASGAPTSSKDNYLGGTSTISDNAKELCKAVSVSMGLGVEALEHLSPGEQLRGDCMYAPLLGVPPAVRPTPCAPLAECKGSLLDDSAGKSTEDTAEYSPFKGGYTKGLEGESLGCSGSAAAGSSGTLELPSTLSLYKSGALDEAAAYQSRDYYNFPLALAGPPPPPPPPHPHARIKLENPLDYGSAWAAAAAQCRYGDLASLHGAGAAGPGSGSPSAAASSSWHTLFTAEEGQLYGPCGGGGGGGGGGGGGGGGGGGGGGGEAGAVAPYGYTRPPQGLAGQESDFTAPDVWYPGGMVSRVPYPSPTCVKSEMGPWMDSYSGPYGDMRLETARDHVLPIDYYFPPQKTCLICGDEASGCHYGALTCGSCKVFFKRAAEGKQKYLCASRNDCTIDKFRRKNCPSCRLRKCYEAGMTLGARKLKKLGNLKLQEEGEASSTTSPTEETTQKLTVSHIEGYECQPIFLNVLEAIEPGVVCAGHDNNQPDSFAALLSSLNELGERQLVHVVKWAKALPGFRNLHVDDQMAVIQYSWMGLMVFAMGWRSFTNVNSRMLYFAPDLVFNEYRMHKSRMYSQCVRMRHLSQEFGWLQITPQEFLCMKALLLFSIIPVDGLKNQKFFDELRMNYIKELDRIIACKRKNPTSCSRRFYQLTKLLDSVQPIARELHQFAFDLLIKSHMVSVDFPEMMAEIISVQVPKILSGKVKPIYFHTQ
In short: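 AR loss reported as IC50 from curve fits of fluorescence dose-response data, with AR immunostained and read by laser-scanning cytometry. Compound exposure was 20-22 h at 37° C in LNCaP cells grown in 5% charcoal-stripped FBS and plated overnight beforehand.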

## OC1(c2cccnc2)CCN(c2ccc3nnc(C(F)(F)F)n3n2)CC1 [Example 511, 4-pyridin-3-yl-1-[3-(trifluoromethyl)[1,2,4]triazolo[4,3-b]pyridazin-6-yl]piperidin-4-ol]
Rat GST-tagged AR-LBD
  IC50: > 100 µM

## Cn1nccc1CCOc1ccc(C2CCN(c3ccc4nnc(C(F)(F)F)n4n3)CC2)cc1 [Example 513, 6-[4-[4-[2-(1-methyl-1H-pyrazol-5-yl)ethoxy]phenyl]piperidin-1-yl]-3-(trifluoromethyl)[1,2,4]triazolo[4,3-b]pyridazine]
Rat GST-tagged AR-LBD
  IC50: 1.3 µM
Androgen Receptor (AR)
  DC50: 0.24 µM
